The source of these data is patent publication US20220193120A1, “MOLECULAR HYDROGEN-CONTAINING COMPOSITION FOR MAINTAINING LUNG FUNCTION IN HUMAN LUNG CANCER AND/OR IMPROVING REDUCTION IN LUNG FUNCTION ATTRIBUTED TO HUMAN LUNG CANCER” (MiZ Company Limited, priority 2020, published 2022).

Molecules are shown by their SMILES. Like-named read-outs stand apart in the source and are kept apart here.

For one series, the system named is Lewis Lung Carcinoma. The conditions noted are these: inhalation of low concentration (3.5%) hydrogen; Japanese Patent No. 6781485, Example 1; cited from earlier work.
Series [1] concerns lung function of subject having lung cancer. The method, then:
On Oct. 21, 2020, inhalation of the hydrogen gas was started using a hydrogen gas generator (Jobs-α, hydrogen concentration: about 4% to 5%, the amount of 100% hydrogen to be generated: 200 ml/min) manufactured by MiZ Company Limited (Ofuna, Kamakura). […]

The test system is the same in series [2]. The conditions noted are these: one month from start of inhalation, hydrogen about 1% to 2%, 3 to 6 hours per day. The method, then: A person had surgery of colorectal cancer in 2018. Thereafter, the person was periodically examined for follow-up. […] From the day of examination, the person was treated with hydrogen gas inhalation for 3 to 6 hours per day using a hydrogen gas generator (Jobs-mini, hydrogen concentration: about 1% to 2%, the amount of 100% hydrogen to be generated: 30 ml/min).

For series [3] the following is noted: room temperature, normal pressure; also printed as 1.6 mg/L; cited from earlier work.
Where [4] appears, read: Week 2, hydrogen about 4% to 5%, at least 3 hours per day.
Setting [5] is: Week 3, hydrogen about 4% to 5%, at least 3 hours per day.

For the compound `[HH]` [hydrogen gas, molecular hydrogen], the metastasis result in the series with Lewis Lung Carcinoma is given as “suppressed”. In addition, the “tolerability of hydrogen gas inhalation” value in series [1] (Week 1, inhalation 5 hours per day, hydrogen concentration about 4% to 5%, person stage IV lung cancer) was “inhaled comfortably with no discomfort”. In addition, in series [1] (setting [4]), the “amount of oxygen needed for oxygen inhalation” value is given as “reduced”, the breathing entry was “became easier”, the “lung X-ray image change” value is reported as “any significant change was not observed” and the state of breathing entry is recorded as “became better”. In series [1] (setting [5]), the “amount of oxygen needed for oxygen inhalation” value is reported as “reduced compared to that in the previous week”; the “complicating inflammation reaction such as colitis” value is recorded as “improved”; the “lung ventilatory function (doctors' determination from CT image and oxygen needed)” value was “improved compared to that one month ago”; the “shadows derived from pneumonia in chest CT image” value is given as “completely disappeared”. Besides, in series [2], the breathing function entry is “normal values again”, the lung capacity result is recorded as “normal values again” and the tumor markers result is given as “normal numeric values again”. The “lung cancer at pre-surgery examination” value in series [2] (person) was “disappeared”. For the same compound, the “concentration of hydrogen dissolved in water” value in series [3] is given as “approximately 1.6 ppm”.
